Data: patent publication US10308631B2, “Selective anti-cancer compounds” (NATIONAL UNIVERSITY OF SINGAPORE, priority 2015, dated 2019)
Blank lines part the entries; values can stand above or below the molecule they belong to.

Key:
HeLa cells = experiment: Soft agar colony formation assay (anchorage-independent growth); format: cell-based, human; details: sub-micromolar concentrations, seven days
Procedure: FIG. 8 is a histogram showing that Compound 1 (a131) potently suppresses anchorage-independent growth of cancer cells. HeLa cells were suspended in 2 mL of soft agar at the final concentration of 0.4%, and were then placed on the top of 2 mL layer of 1% agar in 6-well plates, in triplicate. Subsequently, Compound 1 (a131) was added to the plates at concentrations of 0, 0.15, 0.3, 0.6, 1.25. 2.5 and 5 μM. Seven (7) days after the addition of Compound 1 (a131) to soft agar cultures, the number of colonies per plate were counted in an unbiased manner using automated MATLAB software. The average number of colonies from triplicates was plotted with standard deviations.
Soft agar colony formation assays are known to better mimic the features of in vivo tumours growing in three dimensions than cancer cell lines growing in an in vitro tissue culture. Therefore, the anti-proliferative effects of Compound 1 on cancer cells growing anchorage-independently in soft agar were studied too.
HeLa cells as cultured in Biology Example 1 (1×10^4 cells/well) were suspended in 2 mL of soft agar at a final concentration of 0.4%. […] Seven days after the addition of Compound 1, the number of colonies per plate was counted in an unbiased manner using MATLAB software.

[1] = tested on: HeLa cells (mitotic spindles, β-tubulin/DAPI); experiment: Immunofluorescence analysis of mitotic spindles and chromosomes; format: cell-based, human; details: 6 h, Compound 1 2.5 μM, CQ 15 or 25 μM
Procedure: HeLa cells, treated with Compound 1 (a131) at 2.5 μM (FIG. 3b), chloroquine (CQ) at 15 μM (FIG. 3c) or 25 μM (FIG. 3d), or DMSO (FIG. 3a) for 6 h, were fixed in methanol and subjected to immunofluorescence analysis using antibodies against β-tubulin to visualize proper formation of mitotic spindles. The condensed mitotic chromosomes were visualized by counterstaining with DAPI. Only Compound 1 (a131)-treated HeLa cells arrested in mitosis with misaligned chromosomes and disorganized spindles (FIG. 3b). The bars in FIGS. 3a-d represent 5 μm in length.
To confirm the inhibitory mitotic progression ability, HeLa cervical cancer cells as cultured above were treated with Compound 1 (2.5 μM, DMSO), CQ (15 or 25 μM, DMSO) or DMSO for 6 h. The treated cells were fixed in methanol and subjected to immunofluorescence analysis using antibodies against β-tubulin (Abcam, Cat#ab52623) to visualize proper formation of mitotic spindles. The condensed mitotic chromosomes were visualized by counterstaining with DAPI.

[2] = tested on: oncogene-transformed BJ cells; experiment: Time-lapsed live cell analysis of mitotic progression (GFP-Histone H2B); format: cell-based, human; details: 2.5 μM, monitored every 10 min
Procedure: (§1) A: is a histogram showing isogenic non-transformed and oncogene-transformed BJ cells stably expressing GFP-tagged Histone H2B as a marker for chromosome segregation, treated with Compound 1 (a131) at 2.5 μM final concentration. Mitotic progression of these cells was monitored every 10 min. More than 100 cells per condition were quantified and classified into 3 groups: no, mild and severe mitotic defects with prolonged mitotic arrest, chromosome mis-segregation and failure in cytokinesis. […] The bars represent 5 μm in length. C: is a histogram showing quantification of defects in spindle formation and chromosome alignments (n>100 cells per condition).
(§2) Isogenic non-transformed and oncogene-transformed BJ cells stably expressing GFP-tagged Histone H2B as a marker for chromosome segregation were treated with Compound 1 at 2.5 μM final concentration. Mitotic progression of these cells was monitored every 10 min and images were acquired using a Super Resolution Microscope (Nikon) equipped with an iXon EM+ 885 EMCCD camera (Andor) mounted on a Nikon Eclipse Ti-E inverted microscope with a CFI Apo objective and a Stage Top Incubation with Digital CO2 mixer (Tokai). The images were processed with the NIS-Elements AR software. […]

[3] = tested on: non-transformed normal BJ cells; experiment: as above; format: cell-based, human; details: 2.5 μM, monitored every 10 min
Procedure: as §1, §2

HeLa cells (LC3 puncta) = experiment: Immunofluorescence analysis of LC3 puncta; format: cell-based, human; details: 2.5 μM, 6 h
Procedure: HeLa cells, treated with either Compound 1 (a131) at 2.5 μM or DMSO for 6 h, were fixed in ice-cold methanol and subjected to immunofluorescence analysis using antibodies against LC3 and counterstained with diamidino-2-phenylindole (DAPI) to visualize the nucleus. The Merge boxes show both LC3 and DAPI staining. The bars represent 5 μm in length.
To confirm the results of the immunoblot analysis and the lysosome-mediated autophagy activity, HeLa cervical cancer cells as cultured above were treated with Compound 1 (2.5 μM, DMSO) or DMSO as a control for 6 h. The treated cells were fixed in ice-cold methanol and subjected to immunofluorescence analysis using antibodies against LC3 and counterstained with diamidino-2-phenylindole (DAPI) to visualize the nucleus.

Aqueous solubility = format: physicochemical; details: compared with Compound 1
HCT-15 tumour sections = experiment: Immunofluorescence analysis of xenograft tumour sections; format: in vivo, mice; details: 80 mg/kg, 12 days, vs control vehicle
Procedure: A, B: is a graphical representation of tumour volumes estimated periodically as indicated. Mice bearing established tumour xenografts using HCT15 or MDA-MB-231 cells were treated orally (PO) or intraperitoneally (IP) twice a day with the indicated doses of Compound 1 or Compound 16 for 12 or 15 days. Paclitaxel (PTX) was given intravenously at dose of 40 mg/kg, 3 times every 4 days. Error bars show ±S.D. from mean tumour volumes obtained from 6 mice. Student's t-test was performed to determine the statistical significance (*=p<0.005). C: is a bar graph showing quantification of cells (n>100 per condition) with misaligned chromosomes and multipolar mitotic-spindles. […] tumour sections treated with Compound 16 (80 mg/kg) or control vehicle for 12 days were stained with anti-β-tubulin antibodies and DAPI. The percentage of cells with misaligned chromosomes and multipolar mitotic-spindles was quantified and plotted with mean values±S.D.
To confirm the antimitotic efficacy of Compound 16 (b5) in vivo, immunofluorescence analysis of HCT-15 tumor sections treated with Compound 16 (80 mg/kg) or control vehicle for 12 days were stained with anti-β-tubulin antibodies and DAPI.

SMILES: N#C/C(=C\c1cccc2cnccc12)c1c[nH]c2ccccc12 [Compound 1, (Z)-2-(1H-indol-3-yl)-3-(isoquinolin-5-yl)acrylonitrile]
reduction of HeLa cell colonies grown in soft agar (HeLa cells): greater than 50%
mitotic arrest, chromosome alignment and mitotic spindles [1]: arrested in mitosis with massively misaligned chromosomes and disorganized mitotic spindles
mitotic defects [2]: severe mitotic defects with prolonged mitotic arrest, chromosome mis-segregations and failure in cytokinesis
mitotic defects [3]: only induced a short period of mitotic arrest with mild mitotic defects
LC3 puncta formation (HeLa cells (LC3 puncta)): increased LC3 puncta formation

aqueous solubility (Aqueous solubility): improved aqueous solubility
SMILES: CN1CCN(CC(=O)n2cc(/C(C#N)=C/c3cccc4cnccc34)c3ccccc32)CC1 [Compound 16, (Z)-3-(isoquinolin-5-yl)-2-(1-(2-(4-methylpiperazin-1-yl)acetyl)-1H-indol-3-yl)acrylonitrile]
cancer cells with misaligned chromosomes and multipolar mitotic-spindles (HCT-15 tumour sections): significantly increased the number of cancer cells harbouring massively misaligned chromosomes with multipolar mitotic-spindles
